From US6352958B1, “Cycloimido-substituted benzofused heterocyclic herbicides” (FMC Corporation, priority 1997, dated 2002)

How the values were obtained:
Assay type in all cases: in vivo
[1] = test system: green foxtail (Setaria viridis); assay: Postemergence herbicidal activity, green foxtail; details: rate of application 0.3 Kg/Ha, rated after 12-17 days
[2] = test system: common cocklebur (Xanthium strumarium L.); assay: Postemergence herbicidal activity, cocklebur; details: rate of application 0.3 Kg/Ha, rated after 12-17 days
[3] = test system: velvetleaf (Abutilon theophrasti); assay: Postemergence herbicidal activity, velvetleaf; details: rate of application 0.3 Kg/Ha, rated after 12-17 days
[4] = test system: soybean (Glycine max var. Winchester); assay: Preemergence herbicidal activity, soybean; details: Rate of Application 0.3 Kg/Ha, examined after 12-17 days
[5] = test system: wheat (Triticum aestivum var. Lew); assay: Postemergence herbicidal activity, wheat; details: rate of application 0.3 Kg/Ha, rated after 12-17 days
[6] = test system: field corn (Zea mays var. Pioneer 3732); assay: Postemergence herbicidal activity, corn; details: rate of application 0.3 Kg/Ha, rated after 12-17 days
[7] = test system: morningglory (Ipomea lacunosa or Ipomea hederacea); assay: Preemergence herbicidal activity, morningglory; details: Rate of Application 0.3 Kg/Ha, examined after 12-17 days
[8] = test system: common cocklebur (Xanthium strumarium L.); assay: Preemergence herbicidal activity, cocklebur; details: Rate of Application 0.3 Kg/Ha, examined after 12-17 days
[9] = test system: common chickweed (Stellaria media); assay: Postemergence herbicidal activity, chickweed; details: rate of application 0.3 Kg/Ha, rated after 12-17 days
[10] = test system: green foxtail (Setaria viridis); assay: Preemergence herbicidal activity, green foxtail; details: Rate of Application 0.3 Kg/Ha, examined after 12-17 days
[11] = test system: field corn (Zea mays var. Pioneer 3732); assay: Preemergence herbicidal activity, corn; details: Rate of Application 0.3 Kg/Ha, examined after 12-17 days
[12] = test system: velvetleaf (Abutilon theophrasti); assay: Preemergence herbicidal activity, velvetleaf; details: Rate of Application 0.3 Kg/Ha, examined after 12-17 days
[13] = test system: wheat (Triticum aestivum var. Lew); assay: Preemergence herbicidal activity, wheat; details: Rate of Application 0.3 Kg/Ha, examined after 12-17 days
[14] = test system: Johnsongrass (Sorghum halepense); assay: Postemergence herbicidal activity, johnsongrass; details: rate of application 0.3 Kg/Ha, rated after 12-17 days
[15] = test system: soybean (Glycine max var. Winchester); assay: Postemergence herbicidal activity, soybean; details: rate of application 0.3 Kg/Ha, rated after 12-17 days
[16] = test system: common chickweed (Stellaria media); assay: Preemergence herbicidal activity, chickweed; details: Rate of Application 0.3 Kg/Ha, examined after 12-17 days
[17] = test system: Johnsongrass (Sorghum halepense); assay: Preemergence herbicidal activity, johnsongrass; details: Rate of Application 0.3 Kg/Ha, examined after 12-17 days
[18] = test system: morningglory (Ipomea lacunosa or Ipomea hederacea); assay: Postemergence herbicidal activity, morningglory; details: rate of application 0.3 Kg/Ha, rated after 12-17 days
[19] = test system: blackgrass (Aloepecurus myosuroides); assay: Postemergence herbicidal activity, blackgrass; details: rate of application 0.3 Kg/Ha, rated after 12-17 days
[20] = test system: blackgrass (Aloepecurus myosuroides); assay: Preemergence herbicidal activity, blackgrass; details: Rate of Application 0.3 Kg/Ha, examined after 12-17 days

Compound	Postemergence herbicidal activity (% control) SETVI [1] [%]	Postemergence herbicidal activity (% control) XANPE [2] [%]	Postemergence herbicidal activity (% control) ABUTH [3] [%]	PREEMERGENCE HERBICIDAL ACTIVITY (% CONTROL) SOY [4] [%]	Postemergence herbicidal activity (% control) WHT [5] [%]	Postemergence herbicidal activity (% control) CRN [6] [%]	PREEMERGENCE HERBICIDAL ACTIVITY (% CONTROL) IPOSS [7] [%]	PREEMERGENCE HERBICIDAL ACTIVITY (% CONTROL) XANPE [8] [%]	Postemergence herbicidal activity (% control) STEME [9] [%]	PREEMERGENCE HERBICIDAL ACTIVITY (% CONTROL) SETVI [10] [%]	PREEMERGENCE HERBICIDAL ACTIVITY (% CONTROL) CRN [11] [%]	PREEMERGENCE HERBICIDAL ACTIVITY (% CONTROL) ABUTH [12] [%]	PREEMERGENCE HERBICIDAL ACTIVITY (% CONTROL) WHT [13] [%]	Postemergence herbicidal activity (% control) SORHA [14] [%]	Postemergence herbicidal activity (% control) SOY [15] [%]	PREEMERGENCE HERBICIDAL ACTIVITY (% CONTROL) STEME [16] [%]	PREEMERGENCE HERBICIDAL ACTIVITY (% CONTROL) SORHA [17] [%]	Postemergence herbicidal activity (% control) IPOSS [18] [%]	Postemergence herbicidal activity (% control) ALOMY [19] [%]	PREEMERGENCE HERBICIDAL ACTIVITY (% CONTROL) ALOMY [20] [%]
Cc1cc2c(Cl)cc(F)c(-n3c(=O)cc(C(F)(F)F)n(C)c3=O)c2o1 [Compound 222]	100	100	100	100	70	90	100	100	100	100	90	100	70	100	100	100	100	100	100	–
CON=Cc1cc2c(Cl)ccc(-n3c(=O)cc(C(F)(F)F)n(C)c3=O)c2o1 [Compound 259]	80	70	100	70	35	75	70	55	30	100	80	100	40	70	80	100	95	90	55	–
CCOC(=O)c1cc2c(N3C(=O)C4=C(CCCC4)C3=O)ccc(Cl)c2[nH]1 [Compound 595, 3-(7-CHLORO-2-ETHOXYCARBONYLINDOL4-YL)-4,5,6,7-TETRAHYDRO-1H-ISOINDOLE-1,3(2H)-DIONE]	20	20	30	10	10	60	50	20	0	0	0	60	0	20	50	10	40	40	10	–
Cn1c(C(F)(F)F)cc(=O)n(-c2ccc(Cl)c3cc(CO)oc23)c1=O [Compound 238]	80	100	100	100	30	70	100	80	–	90	70	100	60	70	80	60	90	100	40	50
Cn1c(C(F)(F)F)cc(=O)n(-c2c(F)cc(Cl)c3cc(C(C)(C)N)oc23)c1=O [Compound 254]	100	95	100	25	40	80	50	50	–	100	80	100	20	80	95	30	80	70	50	60
CC(=O)OCCc1cc2c(Cl)cc(F)c(-n3c(=O)cc(C(F)(F)F)n(C)c3=O)c2o1 [Compound 260]	100	100	100	100	80	70	100	100	–	100	80	100	70	90	90	100	100	100	90	95
Cn1c(C(F)(F)F)cc(=O)n(-c2c(F)cc(Cl)c3oc(NS(C)(=O)=O)nc23)c1=O [Compound 42]	100	50	90	0	30	60	60	20	–	30	0	100	10	20	65	30	0	60	40	50
Cc1cc2c(Cl)ccc(-n3c(=O)cc(C(F)(F)F)n(C)c3=O)c2o1 [Compound 221]	70	60	100	70	50	60	100	–	100	100	85	100	60	70	95	80	95	100	40	–
